Data as given in ChEMBL document CHEMBL1201862, “PubChem BioAssay data set” (2004).
The source made the active and inactive calls.

Tests used:
BJ [1] = test: cytotoxicity toward BJ-TERT fibroblasts, dose response, cell-based, RAS-independent, luminescence (AID 1933); type: functional; settings: Homo sapiens
BJ [2] = test: cells; type: functional, cell-based; settings: Homo sapiens
BJ [3] = test: cytotoxicity toward BJ-TERT-LT-ST fibroblasts, dose response, cell-based, RAS-independent, luminescence (AID 1935); type: functional; settings: Homo sapiens;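 also: BJ fibroblasts immortalized with TERT plus LT and ST oncogenes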
[4] = cytotoxicity toward DRD oncogenic fibroblasts, dose response, cell-based, non-viral oncogenic, luminescence (AID 1934); type: functional; settings: Homo sapiens
[5] = system: Streptococcus sp. 'group A'; test: growth inhibition of control SK(-) GAS strain, dose response, counter-screen for streptokinase expression inhibitor project, luminescence, kanamycin, BacTiterGlo, confirmation (AID 1900); type: functional, organism-based
[6] = inhibitors of intracellular T. cruzi replication, confirmation, NIH3T3 host cells, beta-gal luminescence (AID 2044); type: functional, cell-based;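 also: intracellular parasites grown in NIH/3T3 mouse fibroblasts as host cells; luminescent beta-galactosidase reporter signal from transgenic T. cruzi replicating inside host cells; inhibitors lower the luminescence signal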
Streptococcus = test: Group A Streptococcus viability loss, dose response, counter-screen for streptokinase expression inhibitor project, luminescence, BacTiterGlo (AID 1915); type: functional, organism-based;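 also: potency for reduction of bacterial viability or growth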
Vero = test: cells; type: functional; settings: Chlorocebus sabaeus
[7] = human group III sPLA2 inhibitors, dose response, biochemical, QFRET, IC50 (AID 743457);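 also: green fluorescence rise as the enzyme cleaves BODIPY PC-A2 in liposomes; potency for inhibition of the enzyme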
[8] = target: T1, Oxysterols receptor LXR-beta (Homo sapiens, UniProt P55055); type: functional, cell-based;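 also: agonist activity at LXR measured by a cell-based luminescence readout across a dose range, run as a counterscreen for daf-12 agonists; potency for activation of Gal4-LXR reporter so compounds are agonists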
T1 sequence (P55055 whole entry): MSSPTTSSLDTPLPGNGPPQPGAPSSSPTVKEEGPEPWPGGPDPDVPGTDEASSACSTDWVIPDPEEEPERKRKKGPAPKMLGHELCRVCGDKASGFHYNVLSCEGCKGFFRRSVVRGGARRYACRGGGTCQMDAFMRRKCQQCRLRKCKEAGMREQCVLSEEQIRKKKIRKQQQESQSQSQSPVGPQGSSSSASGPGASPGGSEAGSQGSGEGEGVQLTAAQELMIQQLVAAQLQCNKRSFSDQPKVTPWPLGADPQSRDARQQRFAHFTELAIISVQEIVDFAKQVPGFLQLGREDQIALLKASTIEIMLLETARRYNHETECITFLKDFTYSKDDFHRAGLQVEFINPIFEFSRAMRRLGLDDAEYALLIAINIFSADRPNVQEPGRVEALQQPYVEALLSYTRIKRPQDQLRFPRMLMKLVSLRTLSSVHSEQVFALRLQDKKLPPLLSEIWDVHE

Estrogen receptor beta [9] = target: T2, Estrogen receptor beta (Homo sapiens, UniProt Q92731);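 also: recombinant ER-beta bound to coactivator SRC1 peptide in presence of estradiol agonist; inhibitors block coactivator peptide binding and lower the FRET signal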
T2 sequence (Q92731 whole entry): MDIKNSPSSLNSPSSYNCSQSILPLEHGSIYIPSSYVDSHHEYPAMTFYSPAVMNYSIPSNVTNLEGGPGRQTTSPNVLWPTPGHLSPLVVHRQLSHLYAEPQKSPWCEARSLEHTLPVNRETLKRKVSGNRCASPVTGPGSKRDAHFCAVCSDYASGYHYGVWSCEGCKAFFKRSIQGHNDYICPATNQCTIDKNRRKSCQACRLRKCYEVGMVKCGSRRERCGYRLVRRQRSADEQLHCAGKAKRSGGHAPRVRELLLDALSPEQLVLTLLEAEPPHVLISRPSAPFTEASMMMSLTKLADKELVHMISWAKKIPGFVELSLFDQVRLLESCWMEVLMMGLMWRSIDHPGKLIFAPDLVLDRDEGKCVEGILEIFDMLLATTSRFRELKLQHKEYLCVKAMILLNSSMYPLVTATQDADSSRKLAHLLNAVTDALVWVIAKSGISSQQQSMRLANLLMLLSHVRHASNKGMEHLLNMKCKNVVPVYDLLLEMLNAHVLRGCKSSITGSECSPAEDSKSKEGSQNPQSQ

Prothrombin = Prothrombin (Homo sapiens, UniProt P00734); test: Thrombin 1536 HTS Dose Response Confirmation. [Related pubchem assays: 1046 (Thrombin 1536 HTS; hits were confirmed in this assay)]; type: functional
[10] = growth suppression of PTEN-null colon cells, dose response, cell-based, HCT116 PTEN knockout (AID 1047); type: functional;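 also: HCT116 colon tumor cells with PTEN knocked out; cells exposed to compound for 60 hours before readout; potency for loss of cell viability measured by luminescence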
Estrogen receptor beta [11] = target: T2, Estrogen receptor beta; test: ERβ–SRC-3 coactivator interaction inhibitors, confirmation, orthogonal assay, biochemical, ELISA, streptavidin-HRP readout (AID 1060)
[12] = growth suppression of beta-catenin-knockout colon cells, dose response, cell-based, HCT116, human colon tumor (AID 1045); type: functional;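 also: HCT116 colon tumor cells with beta catenin knocked out; cells exposed to compound for 60 hours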
[13] = target: T3, Mannose-6-phosphate isomerase (Homo sapiens, UniProt P34949); test: human PMI inhibitors, high substrate, primary screen, biochemical, fluorescence intensity, high mannose 6-phosphate (AID 1220)
T3 sequence (P34949 whole entry): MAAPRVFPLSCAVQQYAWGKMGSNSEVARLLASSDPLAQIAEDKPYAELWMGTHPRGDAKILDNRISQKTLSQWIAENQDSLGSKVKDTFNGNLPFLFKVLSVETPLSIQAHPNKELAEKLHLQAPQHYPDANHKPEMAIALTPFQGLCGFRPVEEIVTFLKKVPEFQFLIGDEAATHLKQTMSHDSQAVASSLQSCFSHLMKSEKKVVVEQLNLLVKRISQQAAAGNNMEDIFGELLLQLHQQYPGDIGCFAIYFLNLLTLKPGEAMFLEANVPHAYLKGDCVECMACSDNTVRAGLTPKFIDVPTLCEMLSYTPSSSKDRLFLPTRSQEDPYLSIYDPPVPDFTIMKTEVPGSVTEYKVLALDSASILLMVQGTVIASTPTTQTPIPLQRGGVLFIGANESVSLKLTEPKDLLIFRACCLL

H9c2 = test: cells; type: functional, cell-based; settings: Rattus norvegicus, H9c2, Myocardium
[14] = target: T4, Rac GTPase-activating protein 1 (Homo sapiens, UniProt Q9H0H5); test: MgcRacGAP GTPase-activating activity inhibitors, confirmation, biochemical, ADP Hunter fluorescence, primary and confirmatory (AID 624330); type: functional
T4 sequence (Q9H0H5 whole entry): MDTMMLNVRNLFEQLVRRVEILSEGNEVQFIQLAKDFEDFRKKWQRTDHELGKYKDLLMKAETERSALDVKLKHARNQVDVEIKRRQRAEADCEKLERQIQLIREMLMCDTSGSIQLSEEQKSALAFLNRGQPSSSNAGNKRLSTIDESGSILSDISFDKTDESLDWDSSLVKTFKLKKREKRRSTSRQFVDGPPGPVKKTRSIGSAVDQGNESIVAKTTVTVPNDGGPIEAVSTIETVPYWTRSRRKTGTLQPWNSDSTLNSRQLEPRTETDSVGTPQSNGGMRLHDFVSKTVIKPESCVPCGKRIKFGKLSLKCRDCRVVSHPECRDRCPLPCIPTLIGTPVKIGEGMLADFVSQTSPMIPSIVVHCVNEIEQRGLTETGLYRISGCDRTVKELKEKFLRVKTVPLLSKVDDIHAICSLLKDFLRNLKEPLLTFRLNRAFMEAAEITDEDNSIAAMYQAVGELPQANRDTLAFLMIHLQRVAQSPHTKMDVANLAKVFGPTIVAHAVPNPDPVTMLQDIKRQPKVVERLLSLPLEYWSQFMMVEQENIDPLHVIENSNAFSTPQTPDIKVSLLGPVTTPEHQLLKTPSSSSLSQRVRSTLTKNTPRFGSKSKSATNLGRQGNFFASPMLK

[15] = Luminescence-based cell-based high throughput dose response assay to identify activators of the DAF-12 from the parasite S. stercoralis (ssDAF-12).; type: functional
[16] = target: T1, Oxysterols receptor LXR-beta; test: LXR agonists, Gal4 luciferase reporter, dose response, counter-screen for ssDAF-12 agonist project, cell-based, luminescence, HEK293, S. stercoralis campaign (AID 720737); type: functional; settings: read-out: IC50 (the source's name)
Paired box protein Pax-8 = Paired box protein Pax-8 (Homo sapiens, UniProt Q06710); test: inhibitors of PAX8-driven TPO luciferase reporter, dose response, RMG-I cells, cherry-pick (AID 687027); type: functional, cell-based;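 also: luciferase reporter driven by Pax8 target thyroperoxidase promoter measured by SteadyGlo luminescence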
Paired box protein Pax-8, sequence (Q06710 whole entry): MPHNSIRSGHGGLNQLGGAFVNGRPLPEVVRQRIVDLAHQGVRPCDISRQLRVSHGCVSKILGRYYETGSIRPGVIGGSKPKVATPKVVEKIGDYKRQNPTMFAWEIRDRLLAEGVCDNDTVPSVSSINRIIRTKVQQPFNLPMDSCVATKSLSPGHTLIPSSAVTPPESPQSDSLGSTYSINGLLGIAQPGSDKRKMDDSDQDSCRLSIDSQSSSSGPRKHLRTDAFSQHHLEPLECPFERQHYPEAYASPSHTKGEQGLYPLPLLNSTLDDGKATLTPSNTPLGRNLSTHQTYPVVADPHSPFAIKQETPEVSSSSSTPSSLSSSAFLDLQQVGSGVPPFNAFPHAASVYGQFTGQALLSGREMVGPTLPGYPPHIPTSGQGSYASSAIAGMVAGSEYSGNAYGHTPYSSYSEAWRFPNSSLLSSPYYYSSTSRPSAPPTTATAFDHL

[17] = A2780 ovarian cancer cell cytotoxicity, dose response, cytotoxicity control, plate reader, dry powder samples (AID 743046); type: functional, cell-based
[18] = NIH:OVCAR-3 ovarian cancer cell cytotoxicity, dose response, PAX8 inhibitor project, plate reader, dry powder samples (AID 743044); type: functional, cell-based
[19] = IGROV1 ovarian cancer cell cytotoxicity, dose response, PAX8 inhibitor project, plate reader, dry powder samples (AID 743043); type: functional, cell-based; settings: IGROV-1

## COc1ccc(C(=O)c2cc([N+](=O)[O-])ccc2N2CCN(C)CC2)cc1
BJ [1]
  EC50: 9.22 µM (inconclusive)
BJ [2]
  EC50: 32.9 µM (active)
BJ [3]
  EC50: 4.39 µM (active)
[4]
  EC50: 5.04 µM (active)

## COc1cc(C(=O)NNC(=S)NC(=O)c2ccc(Cl)cc2)cc(OC)c1OC
[5]
  EC50: 0.822 µM (active)
[6]
  EC50: 0.756 µM (active)
Streptococcus
  EC50: 2.17 µM (active)
Vero
  CC50: > 25 µM (active)
[7]
  IC50: > 122 µM (inactive)

## Clc1ccc(CSc2nc3cc[nH]cc-3n2)cc1
[8]
  EC50: > 67.5 µM (inactive)

## O=C(CCc1ccccc1)Nc1nnc(-c2cccs2)o1
Estrogen receptor beta [9]
  IC50: > 50 µM (not active)

## CCCC(=O)n1nc(-c2ccco2)nc1SCc1ccccc1
Prothrombin
  IC50: 0.0232 µM (active)

## CC/C(=N/Nc1ccccc1)c1cnnc(-c2ccccc2)n1
Estrogen receptor beta [9]
  IC50: > 50 µM (not active)
[10]
  EC50: 60.2 µM (active)
Estrogen receptor beta [11]
  IC50: 6.12 µM (not active)
[12]
  EC50: 70.6 µM (active)

## Oc1ccc(Cl)cc1/C=N/c1ccc2c3c(cccc13)CC2
[13]
  IC50: > 50 µM (not active)
H9c2
  IC50: 9.38 µM (active)
[14]
  IC50: 12.9 µM (active)

## CN(C)c1ccc(C(C#N)c2ccccc2)nn1 (stereo not drawn)
[8]
  EC50: > 67.5 µM (inactive)

## CCOC(=O)c1ccc(NC(=O)COc2ccc(-n3cnnn3)cc2)cc1
Estrogen receptor beta [11]
  IC50: 0.0598 µM (not active)

## Nc1nc(-c2ccc(Cl)cc2)nn1C(=O)c1cccnc1
Prothrombin
  IC50: 1.37 µM (active)

## O=C(Nc1ccccc1)C(=O)c1c[nH]c2ccccc12
[15]
  IC50: > 67.5 µM (inactive)
[16]
  EC50: > 67.5 µM (inactive)

## COc1ccccc1S(=O)(=O)N(C)C[C@H]1Oc2cc(C#CCC3CCCC3)ccc2S(=O)(=O)N([C@@H](C)CO)C[C@@H]1C
Paired box protein Pax-8
  AC50: 7.59 µM (active)
[17]
  AC50: 52.2 µM (active)
[18]
  AC50: 17.1 µM (active)
[19]
  AC50: 62.2 µM (active)
